Laboratory results: patent publication US20230085307A1, “PYRIDAZINONE COMPOUND AND HERBICIDE” (NISSAN CHEMICAL CORPORATION, priority 2019, published 2023)

What was measured:
rice flat sedge = assay: Test Example 3: herbicidal effect by foliage application, Wagner pot (Table 18, symbol E); format: in vivo, rice flat sedge (Cyperus iria); details: 320 g/ha
In short: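 Plants were sown in alluvial soil held under 0.1–0.5 cm standing water and grown 14 days in a greenhouse at 25–30 °C. An emulsifiable formulation, water-diluted to the set dose, was then sprayed onto the foliage, and effects were scored three weeks later using previously defined criteria.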

barnyard grass = assay: Test Example 4: herbicidal effect by soil treatment (Table 19, symbol H); format: in vivo, barnyard grass (Echinochloa crus-galli); details: amount of applied herbicide 320 g/ha
In short: (§1)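 Applied as a water-diluted emulsion, the compound was sprayed onto soil covering newly sown seeds. Evaluation came three weeks after application, in a greenhouse held at 25° C. to 30° C.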

blackgrass [1] = assay: Test Example 5: herbicidal effect by foliage application, plastic box (Table 20, symbol J); format: in vivo, blackgrass (Alopecurus myosuroides); details: foliage application after 14-day growth, evaluated three weeks after application; for Herbicidal effect by foliage application, J: blackgrass: amount of applied herbicide 320 g/ha
In short: (§2)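 Sow seeds spot-wise in sterilized diluvial soil; cover with ~1.5 cm soil. Grow 14 days in greenhouse, 25° C. to 30° C. Spray foliage with emulsion diluted to predetermined amount. Rate effect after 3 weeks.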

chickweed [2] = assay: Test Example 4: herbicidal effect by soil treatment (Table 19, symbol P); format: in vivo, common chickweed (Stellaria media); details: amount of applied herbicide 320 g/ha
In short: as §1

persian speedwell [3] = assay: Test Example 5: herbicidal effect by foliage application, plastic box (Table 20, symbol R); format: in vivo, Persian speedwell (Veronica persica); details: foliage application after 14-day growth, evaluated three weeks after application; for Herbicidal effect by foliage application, R: persian speedwell: amount of applied herbicide 320 g/ha
In short: as §2

Japanese bulrush [4] = assay: Test Example 2: herbicidal activity, application during weed generation under submerged conditions (Table 17, symbol B); format: in vivo, Japanese bulrush (Schoenoplectus juncoides); details: AAH 320 g/ha; application during weed generation, submerged conditions
In short: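 Steps: fill Wagner pots with alluvial soil; add water to give 4 cm depth; sow the species mixed; grow under glass at 25–30° C.; at 1–2 leaves apply water-diluted emulsion formulation to the water surface at a fixed herbicide amount; score after 3 weeks.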

blackgrass [5] = assay: Test Example 4: herbicidal effect by soil treatment (Table 19, symbol J); format: in vivo, blackgrass (Alopecurus myosuroides); details: amount of applied herbicide 320 g/ha
In short: as §1

wild oat = assay: Test Example 4: herbicidal effect by soil treatment (Table 19, symbol I); format: in vivo, wild oat (Avena fatua); details: amount of applied herbicide 320 g/ha
In short: as §1

southern crabgrass [6] = assay: Test Example 5: herbicidal effect by foliage application, plastic box (Table 20, symbol F); format: in vivo, southern crabgrass (Digitaria ciliaris); details: foliage application after 14-day growth, evaluated three weeks after application; for Herbicidal effect by foliage application, F: southern crabgrass: amount of applied herbicide 320 g/ha
In short: as §2

Italian ryegrass [7] = assay: Test Example 4: herbicidal effect by soil treatment (Table 19, symbol K); format: in vivo, Italian ryegrass (Lolium multiflorum); details: amount of applied herbicide 320 g/ha
In short: as §1

Italian ryegrass [8] = assay: Test Example 5: herbicidal effect by foliage application, plastic box (Table 20, symbol K); format: in vivo, Italian ryegrass (Lolium multiflorum); details: foliage application after 14-day growth, evaluated three weeks after application; for Herbicidal effect by foliage application, K: Italian ryegrass: amount of applied herbicide 320 g/ha
In short: as §2

southern crabgrass [9] = assay: Test Example 4: herbicidal effect by soil treatment (Table 19, symbol F); format: in vivo, southern crabgrass (Digitaria ciliaris); details: amount of applied herbicide 320 g/ha
In short: as §1

oval-leafed pondweed = assay: Test Example 1: herbicidal activity, application before weed generation under submerged conditions (Table 16, symbol C); format: in vivo, oval-leafed pondweed (Monochoria vaginalis); details: amount of applied herbicide 320 g/ha
In short: (§3)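 Emulsion formulation, water-diluted to set dose, was put onto the flooded surface (4 cm depth, alluvial soil) the same day weeds were sown and 2.5-leaf rice transplanted. After 3 weeks at 25-30 °C under glass, each species was rated 0 (≤5% kill) to 5 (≥90% kill).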

Japanese bulrush [10] = assay: Test Example 1: herbicidal activity, application before weed generation under submerged conditions (Table 16, symbol B); format: in vivo, Japanese bulrush (Schoenoplectus juncoides); details: amount of applied herbicide 320 g/ha
In short: as §3

chickweed [11] = assay: Test Example 5: herbicidal effect by foliage application, plastic box (Table 20, symbol P); format: in vivo, common chickweed (Stellaria media); details: foliage application after 14-day growth, evaluated three weeks after application; for Herbicidal effect by foliage application, P: chickweed: amount of applied herbicide 320 g/ha
In short: as §2

persian speedwell [12] = assay: Test Example 4: herbicidal effect by soil treatment (Table 19, symbol R); format: in vivo, Persian speedwell (Veronica persica); details: amount of applied herbicide 320 g/ha
In short: as §1

lambsquarters = assay: Test Example 4: herbicidal effect by soil treatment (Table 19, symbol O); format: in vivo, lambsquarters (Chenopodium album); details: amount of applied herbicide 320 g/ha
In short: as §1

Compound	herbicidal effect on rice flat sedge (E) (rice flat sedge)	Herbicidal effect by soil treatment, H: barnyard grass (barnyard grass)	Herbicidal effect by soil treatment, P: chickweed (chickweed [2])	herbicidal effect rating, B: Japanese bulrush (Japanese bulrush [4])	Herbicidal effect by soil treatment, J: blackgrass (blackgrass [5])	Herbicidal effect by soil treatment, I: wild oat (wild oat)	Herbicidal effect by soil treatment, K: Italian ryegrass (Italian ryegrass [7])	Herbicidal effect by soil treatment, F: southern crabgrass (southern crabgrass [9])	Herbicidal effect, C: oval-leafed pondweed (oval-leafed pondweed)	Herbicidal effect, B: Japanese bulrush (Japanese bulrush [10])	Herbicidal effect by soil treatment, R: persian speedwell (persian speedwell [12])	Herbicidal effect by soil treatment, O: lambsquarters (lambsquarters)	Herbicidal effect by foliage application, J: blackgrass (blackgrass [1])	Herbicidal effect by foliage application, R: persian speedwell (persian speedwell [3])	Herbicidal effect by foliage application, F: southern crabgrass (southern crabgrass [6])	Herbicidal effect by foliage application, K: Italian ryegrass (Italian ryegrass [8])	Herbicidal effect by foliage application, P: chickweed (chickweed [11])	also measured
CCCC(=O)Oc1c(C)nn(C)c(=O)c1-c1c(-c2ccc(SC)cc2)sc2c(F)cccc12 [4-051]	3 (Herbicidal rate of 40% or more and less than 70%)	0 (Herbicidal rate of 5% or less (almost no effect))	4 (Herbicidal rate of 70% or more and less than 90%)	3 (Herbicidal rate of 40% or more and less than 70%)	0 (Herbicidal rate of 5% or less (almost no effect))	0 (Herbicidal rate of 5% or less (almost no effect))	4 (Herbicidal rate of 70% or more and less than 90%)	0 (Herbicidal rate of 5% or less (almost no effect))	0 (Herbicidal rate of 5% or less (almost no effect))	3 (Herbicidal rate of 40% or more and less than 70%)	5 (Herbicidal rate of 90% or more (almost completely withered))	4 (Herbicidal rate of 70% or more and less than 90%)	–	–	–	–	–	herbicidal effect on J: blackgrass (evaluation grade 0-5) (blackgrass [1]; 320 g/ha): 4 (Herbicidal rate of 70% or more and less than 90%); herbicidal effect on R: persian speedwell (evaluation grade 0-5) (persian speedwell [3]; 320 g/ha): 5 (Herbicidal rate of 90% or more (almost completely withered)); herbicidal effect on F: southern crabgrass (evaluation grade 0-5) (southern crabgrass [6]; 320 g/ha): 0 (Herbicidal rate of 5% or less (almost no effect)); herbicidal effect on K: Italian ryegrass (evaluation grade 0-5) (Italian ryegrass [8]; 320 g/ha): 4 (Herbicidal rate of 70% or more and less than 90%); herbicidal effect on P: chickweed (evaluation grade 0-5) (chickweed [11]; 320 g/ha): 5 (Herbicidal rate of 90% or more (almost completely withered))
Cc1nn(C)c(=O)c(-c2c(-c3ccccc3OC(F)(F)F)sc3c(Cl)cccc23)c1O [4-076]	3 (Herbicidal rate of 40% or more and less than 70%)	0 (Herbicidal rate of 5% or less (almost no effect))	1 (Herbicidal rate of 5% or more and less than 20%)	2 (Herbicidal rate of 20% or more and less than 40%)	0 (Herbicidal rate of 5% or less (almost no effect))	0 (Herbicidal rate of 5% or less (almost no effect))	0 (Herbicidal rate of 5% or less (almost no effect))	0 (Herbicidal rate of 5% or less (almost no effect))	0 (Herbicidal rate of 5% or less (almost no effect))	3 (Herbicidal rate of 40% or more and less than 70%)	3 (Herbicidal rate of 40% or more and less than 70%)	3 (Herbicidal rate of 40% or more and less than 70%)	0 (Herbicidal rate of 5% or less (almost no effect))	5 (Herbicidal rate of 90% or more (almost completely withered))	1 (Herbicidal rate of 5% or more and less than 20%)	0 (Herbicidal rate of 5% or less (almost no effect))	5 (Herbicidal rate of 90% or more (almost completely withered))	–
COc1ccc(-c2sc3c(C)cccc3c2-c2c(O)c(C)nn(C)c2=O)cc1 [4-110]	5 (Herbicidal rate of 90% or more (almost completely withered))	0 (Herbicidal rate of 5% or less (almost no effect))	5 (Herbicidal rate of 90% or more (almost completely withered))	3 (Herbicidal rate of 40% or more and less than 70%)	0 (Herbicidal rate of 5% or less (almost no effect))	0 (Herbicidal rate of 5% or less (almost no effect))	5 (Herbicidal rate of 90% or more (almost completely withered))	0 (Herbicidal rate of 5% or less (almost no effect))	4 (Herbicidal rate of 70% or more and less than 90%)	5 (Herbicidal rate of 90% or more (almost completely withered))	4 (Herbicidal rate of 70% or more and less than 90%)	5 (Herbicidal rate of 90% or more (almost completely withered))	4 (Herbicidal rate of 70% or more and less than 90%)	5 (Herbicidal rate of 90% or more (almost completely withered))	1 (Herbicidal rate of 5% or more and less than 20%)	5 (Herbicidal rate of 90% or more (almost completely withered))	5 (Herbicidal rate of 90% or more (almost completely withered))	–
CCSc1ccc(-c2sc3c(C)cccc3c2-c2c(O)c(C)nn(C)c2=O)cc1 [4-124]	5 (Herbicidal rate of 90% or more (almost completely withered))	3 (Herbicidal rate of 40% or more and less than 70%)	4 (Herbicidal rate of 70% or more and less than 90%)	0 (Herbicidal rate of 5% or less (almost no effect))	2 (Herbicidal rate of 20% or more and less than 40%)	0 (Herbicidal rate of 5% or less (almost no effect))	4 (Herbicidal rate of 70% or more and less than 90%)	4 (Herbicidal rate of 70% or more and less than 90%)	2 (Herbicidal rate of 20% or more and less than 40%)	3 (Herbicidal rate of 40% or more and less than 70%)	4 (Herbicidal rate of 70% or more and less than 90%)	5 (Herbicidal rate of 90% or more (almost completely withered))	5 (Herbicidal rate of 90% or more (almost completely withered))	5 (Herbicidal rate of 90% or more (almost completely withered))	3 (Herbicidal rate of 40% or more and less than 70%)	5 (Herbicidal rate of 90% or more (almost completely withered))	5 (Herbicidal rate of 90% or more (almost completely withered))	–
